Reference: patent US10329309B2, “3-(3H-imidazo[4,5-B]pyridin-2-yl)-1H-pyrazolo[4,3-B]pyridines and therapeutic uses thereof” (Samumed, LLC, priority 2015, dated 2019)

Assays:
Assay type in all cases: cell-based
[1] = system: primary human mesenchymal stem cells (hMSCs); assay: Induction of chondrogenesis in primary human mesenchymal stem cells (nodule imaging, Rhodamine B/Nile Red); details: hMSC chondrogenesis; for Emax: TGF-β3 as positive control, read-out: Max. Activity as % TGF-β3 activity; for EC50: concentration required to induce 50% levels of chondrogenesis vs TGF-β3, read-out: Conc (nM) of 50% TGF-β3 activity
Protocol: Representative compounds were screened using primary human mesenchymal stem cells (hMSCs) to determine their ability to induce chondrogenesis (process by which cartilage is developed).
Primary human mesenchymal stem cells (hMSCs) were purchased from Lonza (Walkersville, Md.) and expanded in Mesenchymal Stem Cell Growth Media (Lonza). Cells between passage 3 and 6 were used for the experiments.
Each compound was dissolved in DMSO as a 10 mM stock and used to prepare compound source plates. For the 96 well assay, serial dilution (1:3, 6-point dose-response curves from 2700 nM to 10 nM) and compound transfer was performed using the ECHO 550 (Labcyte, Sunnyvale, Calif.) into 96-well clear bottom assay plates (Greiner Bio-One) with appropriate DMSO backfill for a final DMSO concentration of 0.03%. hMSCs were plated at 20,000 cells/well in 250 μL/well Incomplete Chondrogenic Induction Medium (Lonza; DMEM, dexamethasone, ascorbate, insulin-transferrin-selenium [ITS supplement], gentamycin-amphotericin [GA-1000], sodium pyruvate, proline and L-glutamine). TGF-−3 (10 ng/mL) was used as a positive control for differentiation while negative control wells were treated with 75 nL DMSO for normalization and calculating EC50 values. For the 384 well assay, serial dilution (1:3, 8-point dose-response curves from 5000 nM to 2.2 nM) and compound transfer was performed using the ECHO 550 (Labcyte, Sunnyvale, Calif.) into 384-well clear bottom assay plates (Greiner Bio-One) with appropriate DMSO backfill for a final DMSO concentration of 0.03%. hMSCs were plated at 8,000 cells/well in 80 μL/well Incomplete Chondrogenic Induction Medium (Lonza; DMEM, dexamethasone, ascorbate, insulin-transferrin-selenium [ITS supplement], gentamycin-amphotericin [GA-1000], sodium pyruvate, proline and L-glutamine). TGF-β3 (10 ng/mL) was used as a positive control for differentiation while negative control wells were treated with 25 nL DMSO for normalization and calculating EC50 values. Cells were incubated at 37° C. and 5% CO2 for 6 days. To image chondrogenic nodules, the cells were fixed using 4% formaldehyde (Electron Microscopy Sciences), and stained with 2 μg/mL Rhodamine B (Sigma-Aldrich) and 20 μM Nile Red (Sigma-Aldrich) [Johnson K., et. al, A Stem Cell-Based Approach to Cartilage Repair, Science, (2012), 336(6082), 717-721]. The nodules imaged (25 images per well for 96 well plates and 9 images per well for 384 well plates at 10× magnification) by excitation at 531 nm and emission at 625 nm and quantified using the CellInsight CX5 (Thermo Scientific). Area of nodules in each well was normalized to the average of 3 DMSO treated wells on the same plate using Excel (Microsoft Inc.). The normalized averages (fold change over DMSO) of 2 or 3 replicate wells for each compound concentration were calculated. Due to solubility limitations of some of the compounds, curve fitting was incomplete leading to inaccurate EC50 determinations.
Using TGF-β3 as a positive control, the concentration of representative compounds required to induce 50% levels of chondrogenesis is reported. In addition, the maximum activity of each compound and the respective dose that each compound reached maximum chondrogenesis activity is reported.

[2] = system: Wnt activity (Sp5-Luc reporter, SW480 colon carcinoma cells); assay: Screening assay for Wnt activity: Sp5-Luc reporter gene assay in SW480 cells; details: Homo sapiens, overnight incubation, 10-point dose-response from 10 μM
In short: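 SW480 cells stably carrying Sp5-Luc reporter (eight TCF/LEF sites) plated at 4,000/well in 1% FBS medium with compound (10-point 1:3 series from 10 μM, 0.1% DMSO) overnight at 37 °C. BrightGlo luminescence normalized to DMSO; EC50 by four-parameter fit, else % inhibition at 10 μM.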

SW480 colon cancer cells = assay: Cell viability assay (CellTiter-Blue), four days; details: Homo sapiens, 96 h; for EC50: CellTiter-Blue cell viability; for inhibition at 10 µM: read-out: percent inhibition at 10 μM (given for EC50 of >10 μM)
In short: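 Approximately 2×10^3 SW480 cells per well are seeded with compound (8 points, threefold steps, top 10 μM) and incubated four days at 37 °C. CellTiter-Blue is then added for about 3 h and fluorescence read. Non-linear regression gives EC50; for values beyond 10 μM, percent inhibition at that concentration is listed.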

EC50 [1] [nM]	EC50 [2] [nM]	EC50 (SW480 colon cancer cells) [nM]	Structure (SMILES)	Emax [1] [%]	inhibition at 10 µM (SW480 colon cancer cells) [%]
300	1600	> 10000	c1cncc(-c2ccc3[nH]nc(-c4nc5c(-c6cccnc6)ccnc5[nH]4)c3n2)c1 [Compound 88, 5-(pyridin-3-yl)-3-(7-(pyridin-3-yl)-3H-imidazo[4,5-b]pyridin-2-yl)-1H-pyrazolo [4,3-b]pyridine]	95	42.2
	3580	8840	CS(=O)(=O)NCc1cc(F)cc(-c2ccnc3[nH]c(-c4n[nH]c5ccc(-c6cncc(CNCc7ccccc7)c6)nc45)nc23)c1 [Compound 500, N-(3-(2-(5-(5-((Benzylamino)methyl)pyridin-3-yl)-1H-pyrazolo[4,3-b]pyridin-3-yl)-3H-imidazo[4,5-b]pyridin-7-yl)-5-fluorobenzyl)methanesulfonamide]		
	865	944	Cc1ccncc1-c1ccc2[nH]nc(-c3nc4c(-c5ccsc5)ccnc4[nH]3)c2n1 [Compound 285, 5-(4-methylpyridin-3-yl)-3-(7-(thiophen-3-yl)-3H-imidazo[4,5-b]pyridin-2-yl)-1H-pyrazolo[4,3-b]pyridine]	33	
	527	> 10000	O=C(Nc1cncc(-c2ccc3[nH]nc(-c4nc5c(-c6ccsc6)ccnc5[nH]4)c3n2)c1)c1ccccc1 [Compound 291, N-(5-(3-(7-(Thiophen-3-yl)-3H-imidazo[4,5-b]pyridin-2-yl)-1H-pyrazolo [4,3-b]pyridin-5-yl)pyridin-3-yl)benzamide]		2
	1910	2910	COc1cccc(-c2ccnc3[nH]c(-c4n[nH]c5ccc(-c6cncc(NC(=O)C7CCCCC7)c6)nc45)nc23)c1 [Compound 1012, N-(5-(3-(7-(3-Methoxyphenyl)-3H-imidazo[4,5-b]pyridin-2-yl)-1H-pyrazolo [4,3-b]pyridin-5-yl)pyridin-3-yl)cyclohexanecarboxamide]		
	1990	> 10000	CC(C)(C)CC(=O)Nc1cncc(-c2ccc3[nH]nc(-c4nc5c(-c6ccccc6F)ccnc5[nH]4)c3n2)c1 [Compound 72, N-(5-(3-(7-(2-fluorophenyl)-3H-imidazo[4,5-b]pyridin-2-yl)-1H-pyrazolo [4,3-b]pyridin-5-yl)pyridin-3-yl)-3,3-dimethylbutanamide]		0
2	423	768	Oc1cncc(-c2ccc3[nH]nc(-c4nc5c(-c6cccc(F)c6)ccnc5[nH]4)c3n2)c1 [Compound 517, 5-(3-(7-(3-fluorophenyl)-3H-imidazo[4,5-b]pyridin-2-yl)-1H-pyrazolo[4,3-b]pyridin-5-yl)pyridin-3-ol]	59	
10	1960	2000	CC(C)Nc1cncc(-c2ccc3[nH]nc(-c4nc5c(-c6cccnc6)ccnc5[nH]4)c3n2)c1 [Compound 96, N-isopropyl-5-(3-(7-(pyridin-3-yl)-3H-imidazo[4,5-b]pyridin-2-yl)-1H-pyrazolo[4,3-b]pyridin-5-yl)pyridin-3-amine]	113	
30	644	> 10000	CC(C)(C)C(=O)Nc1cncc(-c2ccc3[nH]nc(-c4nc5c(-c6ccc(Cl)s6)ccnc5[nH]4)c3n2)c1 [Compound 1043, N-(5-(3-(7-(5-chlorothiophen-2-yl)-3H-imidazo[4,5-b]pyridin-2-yl)-1H-pyrazolo [4,3-b]pyridin-5-yl)pyridin-3-yl)pivalamide]	65	14.5
	2280	> 10000	O=C(Nc1cncc(-c2ccc3[nH]nc(-c4nc5c(-c6cccs6)ccnc5[nH]4)c3n2)c1)C1CC1 [Compound 356, N-(5-(3-(7-(Thiophen-2-yl)-3H-imidazo[4,5-b]pyridin-2-yl)-1H-pyrazolo [4,3-b]pyridin-5-yl)pyridin-3-yl)cyclopropanecarboxamide]		12.4
2	3620	2040	Fc1cccc(-c2ccnc3[nH]c(-c4n[nH]c5ccc(-c6cnccn6)nc45)nc23)c1 [Compound 520, 3-(7-(3-fluorophenyl)-3H-imidazo[4,5-b]pyridin-2-yl)-5-(pyrazin-2-yl)-1H-pyrazolo[4,3-b]pyridine]	63	
	338	120	COc1cncc(-c2ccc3[nH]nc(-c4nc5c(-c6cccc(F)c6)ccnc5[nH]4)c3n2)c1 [Compound 516, 3-(7-(3-fluorophenyl)-3H-imidazo[4,5-b]pyridin-2-yl)-5-(5-methoxypyridin-3-yl)-1H-pyrazolo[4,3-b]pyridine]	47	
	822	2640	CCCC(=O)Nc1cncc(-c2ccc3[nH]nc(-c4nc5c(-c6ccsc6)ccnc5[nH]4)c3n2)c1 [Compound 297, N-(5-(3-(7-(thiophen-3-yl)-3H-imidazo[4,5-b]pyridin-2-yl)-1H-pyrazolo[4,3-b]pyridin-5-yl)pyridin-3-yl)butyramide]	40	
	2300	> 10000	NC1CN(c2cncc(-c3ccc4[nH]nc(-c5nc6c(-c7ccc(Cl)s7)ccnc6[nH]5)c4n3)n2)C1 [Compound 1068, 1-(6-(3-(7-(5-Chlorothiophen-2-yl)-3H-imidazo[4,5-b]pyridin-2-yl)-1H-pyrazolo[4,3-b]pyridin-5-yl)pyrazin-2-yl)azetidin-3-amine]		17.8
	4110	8650	Fc1cccc(-c2ccnc3[nH]c(-c4n[nH]c5ccc(-c6cncc(OCCN7CCCC7)c6)nc45)nc23)c1 [Compound 514, 3-(7-(3-Fluorophenyl)-3H-imidazo[4,5-b]pyridin-2-yl)-5-(5-(2-(pyrrolidin-1-yl)ethoxy)pyridin-3-yl)-1H-pyrazolo[4,3-b]pyridine]		
	1550	1180	COc1cccc(-c2ccnc3[nH]c(-c4n[nH]c5ccc(-c6cncc(NC(=O)CC(C)(C)C)c6)nc45)nc23)c1 [Compound 1006, N-(5-(3-(7-(3-methoxyphenyl)-3H-imidazo[4,5-b]pyridin-2-yl)-1H-pyrazolo[4,3-b]pyridin-5-yl)pyridin-3-yl)-3,3-dimethylbutanamide]		
	670	> 10000	Fc1ccccc1-c1ccnc2[nH]c(-c3n[nH]c4ccc(-c5ccccn5)nc34)nc12 [Compound 84, 3-(7-(2-Fluorophenyl)-3H-imidazo[4,5-b]pyridin-2-yl)-5-(pyridin-2-yl)-1H-pyrazolo[4,3-b]pyridine]		0
	4000	3910	O=C(Nc1cncc(-c2ccc3[nH]nc(-c4nc5c(N6CCCCC6)ccnc5[nH]4)c3n2)c1)C1CC1 [Compound 188, N-(5-(3-(7-(Piperidin-1-yl)-3H-imidazo[4,5-b]pyridin-2-yl)-1H-pyrazolo [4,3-b]pyridin-5-yl)pyridin-3-yl)cyclopropanecarboxamide]		

Structure (SMILES)	EC50 [1] [nM]	EC50 [2] [nM]	EC50 (SW480 colon cancer cells) [nM]	Emax [1] [%]	inhibition at 10 µM (SW480 colon cancer cells) [%]
Fc1cccc(-c2ccnc3[nH]c(-c4n[nH]c5ccc(C6=CCNCC6)nc45)nc23)c1 [Compound 506, 3-(7-(3-fluorophenyl)-3H-imidazo[4,5-b]pyridin-2-yl)-5-(1,2,3,6-tetrahydropyridin-4-yl)-1H-pyrazolo[4,3-b]pyridine]		> 10000	2800	47	
